The target in the assay is T1, Phosphatidylinositol 3,4,5-trisphosphate 5-phosphatase 1 (Homo sapiens) (UniProt Q92835).
T1 sequence (whole entry): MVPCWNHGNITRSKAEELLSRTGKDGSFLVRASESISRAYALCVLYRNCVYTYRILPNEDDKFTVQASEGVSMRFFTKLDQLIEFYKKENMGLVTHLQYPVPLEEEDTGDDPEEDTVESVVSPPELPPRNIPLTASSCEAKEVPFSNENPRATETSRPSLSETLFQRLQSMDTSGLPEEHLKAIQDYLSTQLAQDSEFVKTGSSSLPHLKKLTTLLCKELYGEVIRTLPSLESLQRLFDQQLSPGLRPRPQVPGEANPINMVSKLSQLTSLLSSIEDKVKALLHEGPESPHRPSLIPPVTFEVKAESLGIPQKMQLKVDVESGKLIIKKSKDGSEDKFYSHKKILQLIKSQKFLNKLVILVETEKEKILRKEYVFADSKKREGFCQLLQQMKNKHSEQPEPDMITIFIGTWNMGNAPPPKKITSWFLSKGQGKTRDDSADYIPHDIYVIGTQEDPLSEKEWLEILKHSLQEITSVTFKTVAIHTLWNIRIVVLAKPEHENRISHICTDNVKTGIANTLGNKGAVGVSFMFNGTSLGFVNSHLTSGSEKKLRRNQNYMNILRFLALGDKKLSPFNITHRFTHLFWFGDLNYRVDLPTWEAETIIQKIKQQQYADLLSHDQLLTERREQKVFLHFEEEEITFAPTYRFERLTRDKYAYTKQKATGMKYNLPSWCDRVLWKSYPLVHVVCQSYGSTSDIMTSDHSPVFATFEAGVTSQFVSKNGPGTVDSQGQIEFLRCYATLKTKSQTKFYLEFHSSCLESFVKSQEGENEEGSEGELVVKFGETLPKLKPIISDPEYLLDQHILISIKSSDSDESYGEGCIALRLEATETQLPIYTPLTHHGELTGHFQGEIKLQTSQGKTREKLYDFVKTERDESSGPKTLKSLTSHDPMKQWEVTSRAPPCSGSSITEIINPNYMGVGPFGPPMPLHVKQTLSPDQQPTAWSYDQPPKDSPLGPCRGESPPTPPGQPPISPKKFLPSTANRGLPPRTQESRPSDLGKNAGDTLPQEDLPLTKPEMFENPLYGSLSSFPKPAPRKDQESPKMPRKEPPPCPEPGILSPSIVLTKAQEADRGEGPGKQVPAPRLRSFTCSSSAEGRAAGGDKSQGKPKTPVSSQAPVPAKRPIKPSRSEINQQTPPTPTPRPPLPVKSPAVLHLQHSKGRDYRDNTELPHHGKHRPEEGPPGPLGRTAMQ
Description: Activation of SHIP1 using IP4 as substrate at 10 uM preincubated for 10 mins before addition of IP4 measured after 10 mins.

SMILES strings stand for the structures. Activity calls are given as the source filed them. The rule behind the calls is not given here.

Regarding `Cc1cc(O)cc2c1[C@]1(C)CC[C@H]3C(C)(C)CCC[C@]3(C)[C@H]1C2`, the outcome was Active.
The same measure for `CC[C@H](C)[C@@H]1NC(=O)[C@@H](C)NC(=O)[C@H](C(C)C)NC(=O)C[C@@H](/C=C/c2ccccc2)OC(=O)[C@H](C(C)C)NC1=O`: “Active”.
The same measure for `CC[C@H](C)[C@@H]1NC(=O)[C@@H](C)NC(=O)[C@H](C(C)C)NC(=O)C[C@H](/C=C/c2ccccc2)OC(=O)[C@H](C(C)C)NC1=O`: “inactive”.

Values taken from ChEMBL document CHEMBL1782005, “Turnagainolides A and B, cyclic depsipeptides produced in culture by a Bacillus sp.: isolation, structure elucidation, and synthesis” (J Nat Prod, 2011).
